# Experimental data from PubChem BioAssay AID248 (DTP/NCI, 2004).
# Several values for one entry are separate records, joined by “and”; a condition that tells them apart may be missing. Equal entries are not always repeated. Toxic doses and inconclusive results are not listed.
# System: L1210 leukemia ip in BDF1 mice, survival T/C
# Assay: NCI In Vivo Anticancer Drug Screen. Data for tumor model L1210 Leukemia (intraperitoneal) in B6D2F1 (BDF1) mice
# Settings: endpoint: mean survival time, higher = longer survival
# Procedure, shortened: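 Value reflects the ratio of survival in compound-treated mice to survival in vehicle-treated controls, with both groups carrying the same transplanted tumor.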
# [1] = dose: 50.0 mg/kg/injection, schedule: Q01DX009 (ip), vehicle: Klucel (hydroxypropylcellulose) (HPC)
# [2] = dose: 100.0 mg/kg/injection, schedule: Q01DX009 (ip), vehicle: Klucel (hydroxypropylcellulose) (HPC)
# [3] = dose: 25.0 mg/kg/injection, schedule: Q01DX009 (ip), vehicle: Klucel (hydroxypropylcellulose) (HPC)
# [4] = dose: 25.0 mg/kg/injection, schedule: Q04DX003 (ip), vehicle: Klucel (hydroxypropylcellulose) (HPC)
# [5] = dose: 50.0 mg/kg/injection, schedule: Q04DX003 (ip), vehicle: Klucel (hydroxypropylcellulose) (HPC)
# [6] = dose: 100.0 mg/kg/injection, schedule: Q04DX003 (ip), vehicle: Klucel (hydroxypropylcellulose) (HPC)
# [7] = dose: 100.0 mg/kg/injection, schedule: Q01DX001 (ip), vehicle: saline
# [8] = dose: 200.0 mg/kg/injection, schedule: Q01DX001 (ip), vehicle: saline
# [9] = dose: 400.0 mg/kg/injection, schedule: Q01DX001 (ip), vehicle: saline
compound,measurement,setting,value
CCCCCCCCCCCCCCCCCCNC(=O)Nc1c(C)cc(C)cc1C,T/C,"dose: 100.0 mg/kg/injection, schedule: Q01DX009 (ip), vehicle: gum acacia",94 % of control
same,T/C,"dose: 100.0 mg/kg/injection, schedule: Q04DX003 (ip), vehicle: gum acacia",90 % of control
same,T/C,"dose: 200.0 mg/kg/injection, schedule: Q01DX009 (ip), vehicle: gum acacia",87 % of control
same,T/C,"dose: 200.0 mg/kg/injection, schedule: Q04DX003 (ip), vehicle: gum acacia",93 % of control
same,T/C,"dose: 400.0 mg/kg/injection, schedule: Q01DX009 (ip), vehicle: gum acacia",94 % of control
same,T/C,"dose: 400.0 mg/kg/injection, schedule: Q04DX003 (ip), vehicle: gum acacia",87 % of control
Oc1c(-c2ccccc2)n[nH]c1-c1ccccc1,T/C,[1],98 % of control
same,T/C,[2],98 % of control
same,T/C,"dose: 200.0 mg/kg/injection, schedule: Q01DX009 (ip), vehicle: Klucel (hydroxypropylcellulose) (HPC)",94 % of control
NC(Cc1c[nH]c2cc(F)ccc12)C(=O)O (configuration not stated),T/C,"dose: 100.0 mg/kg/injection, schedule: Q01DX009 (ip), vehicle: other",97 % of control
same,T/C,"dose: 200.0 mg/kg/injection, schedule: Q01DX009 (ip), vehicle: other",96 % of control
same,T/C,"dose: 400.0 mg/kg/injection, schedule: Q01DX009 (ip), vehicle: other",97 % of control
N#CC1(C#N)C2C=CC(C2)C1(C#N)C#N,T/C,"dose: 6.25 mg/kg/injection, schedule: Q01DX009 (ip), vehicle: saline with Tween-80",97 % of control
same,T/C,"dose: 12.5 mg/kg/injection, schedule: Q01DX009 (ip), vehicle: saline with Tween-80",97 % of control
O=[N+]([O-])c1ccc2[nH]c(=S)sc2c1,T/C,[3],95 % of control
same,T/C,[1],95 % of control
CCOCCO,T/C,"dose: 5.0 mg/kg/injection, schedule: Q01DX009 (ip), vehicle: saline",97 % of control
same,T/C,"dose: 10.0 mg/kg/injection, schedule: Q01DX009 (ip), vehicle: saline",90 % of control
same,T/C,"dose: 20.0 mg/kg/injection, schedule: Q01DX009 (ip), vehicle: saline",98 % of control
CC(C)(C)C1CCC(NC(=O)C(Cl)Cl)CC1 (configuration not stated),T/C,[3],100 % of control
same,T/C,[4],97 % of control
same,T/C,[1],94 % of control
same,T/C,[5],100 % of control
same,T/C,[2],96 % of control
same,T/C,[6],90 % of control and 92 % of control
COc1ccc(OC)c(NC(=O)Nc2ccc(Cl)cc2[N+](=O)[O-])c1,T/C,"dose: 100.0 mg/kg/injection, schedule: Q01DX009 (ip), vehicle: saline with Tween-80",91 % of control
same,T/C,"dose: 200.0 mg/kg/injection, schedule: Q01DX009 (ip), vehicle: saline with Tween-80",97 % of control
same,T/C,"dose: 400.0 mg/kg/injection, schedule: Q01DX009 (ip), vehicle: saline with Tween-80",89 % of control
S=C([S-])N1CCCCC1.S=C([S-])N1CCCCC1.[Zn],T/C,"dose: 18.8 mg/kg/injection, schedule: Q04DX003 (ip), vehicle: saline",92 % of control
same,T/C,"dose: 37.5 mg/kg/injection, schedule: Q04DX003 (ip), vehicle: saline",92 % of control
same,T/C,"dose: 75.0 mg/kg/injection, schedule: Q01DX001 (ip), vehicle: saline",88 % of control
same,T/C,"dose: 75.0 mg/kg/injection, schedule: Q04DX003 (ip), vehicle: saline",96 % of control
O=C(Nc1nc2ccccc2[nH]1)C(F)(F)F,T/C,[7],97 % of control
same,T/C,[8],100 % of control
same,T/C,[9],97 % of control
CC(C)(C)C1CCC(NC(=O)N(CCCl)N=O)CC1 (configuration not stated),T/C,"dose: 16.0 mg/kg/injection, schedule: Q01DX001 (ip), vehicle: other",116 % of control
same,T/C,"dose: 125.0 mg/kg/injection, schedule: Q01DX001 (ip), vehicle: other",198 % of control
same,T/C,"dose: 177.0 mg/kg/injection, schedule: Q01DX001 (ip), vehicle: other",264 % of control
same,T/C,"dose: 250.0 mg/kg/injection, schedule: Q01DX001 (ip), vehicle: other",259 % of control and 283 % of control
same,T/C,"dose: 354.0 mg/kg/injection, schedule: Q01DX001 (ip), vehicle: other",272 % of control
same,T/C,"dose: 375.0 mg/kg/injection, schedule: Q01DX001 (ip), vehicle: other",275 % of control
same,T/C,"dose: 500.0 mg/kg/injection, schedule: Q01DX001 (ip), vehicle: other",200 % of control and 317 % of control
same,T/C,"dose: 708.0 mg/kg/injection, schedule: Q01DX001 (ip), vehicle: other",106 % of control
same,T/C,"dose: 750.0 mg/kg/injection, schedule: Q01DX001 (ip), vehicle: other",170 % of control and 252 % of control
same,T/C,"dose: 1000.0 mg/kg/injection, schedule: Q01DX001 (ip), vehicle: other",86 % of control
same,T/C,"dose: 1250.0 mg/kg/injection, schedule: Q01DX001 (ip), vehicle: other",219 % of control
same,T/C,"dose: 2000.0 mg/kg/injection, schedule: Q01DX001 (ip), vehicle: other",98 % of control
NC(=S)N/N=C1\c2ccccc2-c2c(F)c(F)c(F)c(F)c21,T/C,"dose: 5.0 mg/kg/injection, schedule: Q01DX001 (ip), vehicle: carboxymethylcellulose (CMC)",96 % of control
same,T/C,"dose: 10.0 mg/kg/injection, schedule: Q01DX001 (ip), vehicle: carboxymethylcellulose (CMC)",107 % of control
same,T/C,"dose: 20.0 mg/kg/injection, schedule: Q01DX001 (ip), vehicle: carboxymethylcellulose (CMC)",96 % of control
C=C(Cl)COC(=S)S,T/C,[7],107 % of control
same,T/C,[8],103 % of control
same,T/C,[9],100 % of control
Cc1ccccc1NC(=O)Oc1ccc2ccccc2c1,T/C,"dose: 100.0 mg/kg/injection, schedule: Q04DX002 (ip), vehicle: Klucel (hydroxypropylcellulose) (HPC)",106 % of control
same,T/C,"dose: 200.0 mg/kg/injection, schedule: Q04DX002 (ip), vehicle: Klucel (hydroxypropylcellulose) (HPC)",103 % of control
same,T/C,"dose: 400.0 mg/kg/injection, schedule: Q04DX002 (ip), vehicle: Klucel (hydroxypropylcellulose) (HPC)",106 % of control
Cc1ccc2cc3c4ccccc4ccc3[n+](C)c2c1,T/C,"dose: 75.0 mg/kg/injection, schedule: Q01DX001 (ip), vehicle: carboxymethylcellulose (CMC)",100 % of control
same,T/C,"dose: 150.0 mg/kg/injection, schedule: Q01DX001 (ip), vehicle: carboxymethylcellulose (CMC)",100 % of control
same,T/C,"dose: 300.0 mg/kg/injection, schedule: Q01DX001 (ip), vehicle: carboxymethylcellulose (CMC)",102 % of control
Nc1cccc(C(=O)Nc2ccc(S(=O)(=O)F)cc2)c1,T/C,[7],107 % of control
same,T/C,[8],106 % of control
same,T/C,[9],112 % of control
CC(C)C(N)C(=O)NCCCCC(N)C(=O)O (configuration not stated),T/C,"dose: 25.0 mg/kg/injection, schedule: Q04DX002 (ip), vehicle: saline",103 % of control
same,T/C,"dose: 50.0 mg/kg/injection, schedule: Q04DX002 (ip), vehicle: saline",103 % of control
same,T/C,"dose: 100.0 mg/kg/injection, schedule: Q04DX002 (ip), vehicle: saline",100 % of control
NC(=O)CCP(=O)(CCC(N)=O)CCC(N)=O,T/C,"dose: 50.0 mg/kg/injection, schedule: Q01DX009 (ip), vehicle: saline",94 % of control
same,T/C,"dose: 50.0 mg/kg/injection, schedule: Q04DX003 (ip), vehicle: saline",101 % of control
same,T/C,"dose: 100.0 mg/kg/injection, schedule: Q01DX009 (ip), vehicle: saline",94 % of control
same,T/C,"dose: 100.0 mg/kg/injection, schedule: Q04DX003 (ip), vehicle: saline",103 % of control
same,T/C,"dose: 200.0 mg/kg/injection, schedule: Q01DX009 (ip), vehicle: saline",90 % of control
same,T/C,"dose: 200.0 mg/kg/injection, schedule: Q04DX003 (ip), vehicle: saline",95 % of control
same,T/C,"dose: 400.0 mg/kg/injection, schedule: Q04DX003 (ip), vehicle: saline",98 % of control
CN1CC(C(=O)NCc2ccccc2)CC2c3cccc4[nH]cc(c34)CC21 (configuration not stated),T/C,[4],96 % of control
same,T/C,[5],91 % of control
same,T/C,[6],96 % of control
same,T/C,"dose: 200.0 mg/kg/injection, schedule: Q04DX003 (ip), vehicle: Klucel (hydroxypropylcellulose) (HPC)",89 % of control
same,T/C,"dose: 400.0 mg/kg/injection, schedule: Q04DX003 (ip), vehicle: Klucel (hydroxypropylcellulose) (HPC)",91 % of control
NC(=O)c1cccc(Cl)n1,T/C,"dose: 12.5 mg/kg/injection, schedule: Q04DX002 (ip), vehicle: Klucel (hydroxypropylcellulose) (HPC)",92 % of control
same,T/C,"dose: 25.0 mg/kg/injection, schedule: Q04DX002 (ip), vehicle: Klucel (hydroxypropylcellulose) (HPC)",87 % of control
same,T/C,"dose: 50.0 mg/kg/injection, schedule: Q04DX002 (ip), vehicle: Klucel (hydroxypropylcellulose) (HPC)",90 % of control
CCCCCCCCCCCCCCCCCCNC(=O)Nc1cccc(OC)c1,T/C,"dose: 25.0 mg/kg/injection, schedule: Q04DX002 (ip), vehicle: saline with Tween-80",102 % of control
same,T/C,"dose: 50.0 mg/kg/injection, schedule: Q04DX002 (ip), vehicle: saline with Tween-80",89 % of control
